Measurements as given in US8937050B2, “Methods and compositions for treatment of autism” (The Johns Hopkins University, priority 2011, dated 2015).

Assays:
K562 cells = assay: HbF-producing cell production (DAF staining); format: cell-based, human; conditions: K562 cells, 1.2 mM SB or 100 μM HU; FIG. 1D
Experimental: Fibroblasts (70-95% confluent) were treated with 5 mM 4PBA (1 mM for JNK inhibition studies), 600 μM HU, 200 nM TSA, or 5 μM SFN unless otherwise specified.
K562 cells were suspended in 1.1 mL media and 240 μL of DAF [working solution 50 μL 2,7diaminofluorene (DAF) stock (50 μg DAF in 5 mL 90% glacial acetic acid), 50 μL 30% hydrogen peroxide, and 2.5 ml 200 mM Tris-HCl, pH 7.0]. DAF stained hemoglobinized cells were scored using a hemocytometer.
K562 cells were treated with SB and HU for four to ten days. […] (n≧3 unless otherwise noted).
To determine whether the induction of mitochondrial biogenesis by SB or HU treatment was necessary for the induction of HbF-producing cell production, K562 cells were treated with SB or HU in the presence or absence of AA. […] After two to four days of drug treatment with or without AA, mitochondrial mass was measured using Mitotracker, a mitochondrial stain. Fold change (drug treated/control) is shown. […] After four days of drug treatment with or without AA, cells were stained with DAF. The relative number of cells producing HbF (DAF stained cells) were plotted. […] After eight to ten days of drug treatment, peroxisome proliferation was measured using an antibody against the peroxisomal membrane protein, PEX14 and a FITC-labeled secondary antibody. Fold change (drug treated/control) is shown. In FIGS. 1C, 1D, and 1E, the * represents a statistically significant increase in a measurement between drug treated and control samples or a statistically significant decrease in a measurement between drug treated and drug treated samples in the presence of AA (p≦0.05) (Bars=SEM). This finding indicates dependence of the beneficial effect (i.e., elevated HbF levels) on induced mitochondrial biogenesis. Thus, the therapeutic effects observed in SCD may involve the pharmacological induction of mitochondrial biogenesis by SB or HU.
K562 cells were treated for four days with HU in the presence or absence of SP600125 or PBS as a control (CON). […]

FL-SMN mRNA = assay: RT-PCR of FL-SMN and total SMN mRNA in spinal muscular atrophy fibroblasts; format: cell-based, human
Experimental: Following the manufacturer's protocols, DNase I-treated cDNA was synthesized using Superscript III or Thermoscript reverse transcriptase (Invitrogen). PCR reactions were performed in duplicate on the Roche Lightcycler 3.5 (Basel, Switzerland) or the Bio-Rad iCycler (Hercules, Calif.) using Quantitech SYBR green PCR mix (Qiagen, Valencia, Calif.). GeNorm software calculated a normalization factor for each sample using the relative amounts of at least two of the following reference genes, β2-microglobulin, […], actin, and/or eukaryotic elongation factor 1A (Vandesompele et al., 2002). Primers for the various experiments described herein are listed below.
Type I and type III spinal muscular atrophy (SMA I or SMA III) fibroblasts were treated with SFN for the indicated times. The relative fold increase in the ratio of FL-SMN/total SMN transcripts compared with the untreated cell line (normalized to 1) is plotted. Cell lines from left to right are GM09677, GM00232 and 2906. N≧2 independent experiments.
Spinal muscular atrophy fibroblasts were treated with 1.5 mM SFN alone for 51 hr. (SMA I, GM09677) or treated with 0.5 mM SFN for 8 hr. (SMA III, 2906) with or without […] SP600125 (JNK inhibitor), 2.5 mM 3-methyladenine (autophagy inhibitor, APG), […] antimycin A (mitochondrial inhibitor, MITO) or […] sirtinol (SIRT1 inhibitor). The fold increases in FL-SMN expression compared with either GAPDH or total SMN expression and the fold increase in total SMN expression compared with GAPDH expression after SFN treatment is plotted. Untreated values were normalized to 1 and are indicated by the horizontal line. (n=1 per cell line, performed in duplicate)
To determine which stress pathways are necessary for the increase in FL-SMN production, spinal muscular atrophy fibroblasts were co-treated with SFN and either SP600125, an inhibitor of the JNK pathway (Bennett et al., 2001), 3-methyladenine, an inhibitor of the autophagy pathway (Seglen et al., 1982), antimycin A, a mitochondrial inhibitor (Ranganathan et al., 2009), or sirtinol, an inhibitor of SIRT1 activity (Grozinger et al., 2001). […] SIRT1, an NAD+-dependent deacetylase, is known to regulate cellular stress responses, cellular metabolism and cellular survival (Salminen et al., 2009). Specifically, SIRT1 inhibition reduces the induction of HSR genes (Westerheide et al., 2009); SIRT1 activity enhances SOD2 expression (Anastasiou et al., 2006); SIRT1 negatively regulates the mammalian target of rapamycin triggering autophagy (Haigis et al., 2010); and SIRT1 activates mitochondrial biogenesis via the stress-responsive transcription factor PGC1a (Yu et al., 2009). The yeast ortholog Sir2 is necessary for the induction of mitochondrial biogenesis by 4PBA or HU in Saccharomyces cerevisiae (Cha 2010). […] However, SIRT1 can be activated by various post-translational changes. Therefore, the potential involvement of SIRT1 in the therapeutic effects of these drugs by inhibition studies was evaluated.

Row | SMILES | number of HbF-producing cells (K562 cells) | relative expression of FL-SMN transcripts normalized to GAPDH or total SMN transcript levels (FL-SMN mRNA; FIG. 8B) | total SMN transcript levels normalized to GAPDH transcript levels (FL-SMN mRNA; FIG. 8B) | FL-SMN mRNA expression compared with total SMN transcription (FL-SMN mRNA; SMA type I lines GM09677, GM00232 and SMA type III line 96-2906, FIG. 8A)
1 | NC(=O)NO [HU, hydroxyurea] | significantly increased | – | – | –
2 | C[S@@+]([O-])CCCCN=C=S [SFN, 1-isothiocyanato-4R-(methylsulfinyl)butane] | – | increased | remained unchanged | significantly increased
